Assay results from patent publication US11617748B2, “Meclozine derivatives and diclazuril derivatives for use in the prevention and/or the treatment of disorders associated to the inflammation induced by P. acnes” (priority 2016, dated 2023).
pIC50: −log10 of the molar value.

Experiments:
Type in all cases: cell-based, human
IL-1β mRNA = test: RT-qPCR of P. acnes-induced IL-1β mRNA in ThP-1 cells; conditions: 10 μM, 24 h pre-treatment, 5 h P. acnes
Procedure: RT-qPCR assay. […] Total RNA was isolated using the NucleoSpin RNA and treated with DNAse I, according to the manufacturer's instructions (Macherey-Nagel, Hoerdt, France). RNA concentration was determined at 260 nm on a nanodrop (Labtech, France) and the ratios for all samples were ranging between 1.6 and 1.9. Complementary DNA were generated from 100 ng of total RNA at 50° C. for 10 min followed by the quantitative PCR analysis, carried out in the LightCycler Nano (Roche), and performed with the iTaq Universal SYBR Green One-Step kit (Bio-Rad Laboratories, Hercules, Calif., USA) with a 2-step cycles conditions set at 95° C. for 60 s followed by 40 cycles of 95° C. for 15 s, 68° C. for 60 s, and ended by a melting curve at 65-95° C., 60 s with 0.1° C./s. From the amplification curves, the threshold cycles (Ct) are determined for the studied genes. The amount of relative RNA in stimulated cells relative to control cells is calculated according to the method of 2Act and expressed as a relative fold change expression normalized to gene expression of internal control (GAPDH). IL-8 primers were used: sens 5′-[sequence]-3′, anti-sens 5′-[sequence]-3′ and GAPDH primers: sens 5′-[sequence]-3′, GADPH anti-sens 5′-[sequence]-3′. Sample quantification was made in triplicate.
Controls experiments were done with unpretreated/unstimulated cell and with P. acnes stimulated cells only.

p38 = test: Western blot of p-p38/p38 in P. acnes-stimulated HaCaT cells; conditions: 25 μM, 24 h pre-treatment
Procedure: (§1) Western Blot analysis. Whole cell protein extracts (25 μg) were separated by electrophoresis (LDS-PAGE) under denaturing conditions with NuPAGE Novex 4-12% Bis-Tris gel (1 mm, 12 wells, Invitrogen, UK) and proteins were transferred onto nitrocellulose membranes and saturated in 20 ml of saturation buffer consisting of TBS 1× (Tris Buffered Saline) containing 200 mM Tris, 1.4 M NaCl (pH 7.6), 5% no fat milk, 0.1% Tween 20 for 1 h. […] After washing to remove unbound antibodies, bound primary antibodies were detected by incubation for 1 h using secondary antibody against rabbit- and mouse IgG (Santa Cruz Biotechnology, SC-2357, 1:5000 and SC-2005, 1:5000, respectively). Unbound material was removed by washing and peroxidase activity was detected in a chemiluminescence assay (WesternBright ECL, Advansta, Menlo Park, USA). […]

JNK = test: Western blot of p-JNK/JNK in P. acnes-stimulated HaCaT cells; conditions: 25 μM, 24 h pre-treatment
Procedure: as §1

IL-8 production [1] = test: IL-8 production by M5-stimulated NHDK, in vitro psoriasis-like model (ELISA); conditions: NHDK + M5, 48 h
Procedure: Cell culture, pretreatment and stimulation.
ELISA. Human IL-1β, IL-8, hBD-2 and TNF-α protein concentration were measured in the supernatants of stimulated cells using various ELISA Sets (all from Ready-Set-Go from eBioscience, except hBD-2 measurements: Human DEFB4A/BD-2 ELISA Kit from LSBio) according to the manufacturer's instructions. We used serial dilutions of recombinant human IL-1β, IL-8, hBD-2 and TNF-α for standard curve. The optical density was determined at 450 nm at a wavelength correction of 540 nm.

IL-8 production [2] = test: P. acnes-induced IL-8 production in HaCaT keratinocytes (ELISA); conditions: HaCaT cells pre-treated 24 h, no P. acnes stimulation

Cc1cccc(CN2CCN(C(c3ccccc3)c3ccc(Cl)cc3)CC2)c1 (centres unmarked) [meclozine, Meclozine] was tested, and the “inhibition of IL-1β mRNA production” value (IL-1β mRNA) was ≤ 38%, the “phosphorylation of p38 induced by P. acnes” value (p38) was “prevented the phosphorylation” and the “phosphorylation of JNK induced by P. acnes” value (JNK) was “did not cause any changed”. For the same molecule, the “effect on IL-8 production, in words” value (IL-8 production [1]; 0.39 to 12.5 μM) was “no effect” and the “IL-8 production in pretreated cells without being stimulated” value (IL-8 production [2]) was “no change”.
N#CC(c1ccc(Cl)cc1)c1c(Cl)cc(-n2ncc(=O)[nH]c2=O)cc1Cl (centres unmarked) [diclazuril, Diclazuril] was tested, and the “inhibition of IL-1β mRNA production” value (IL-1β mRNA) was “up to 91%”, the “phosphorylation of p38 induced by P. acnes” value (p38) was “prevented the phosphorylation” and the “phosphorylation of JNK induced by P. acnes” value (JNK) was “did not cause any changed”. For the same molecule, the pIC50 (IL-8 production [1]; Homo sapiens, read-out: IC50 of decrease of IL-8 production) was 5.52 to 5.70, the “decrease of IL-8 production” value (IL-8 production [1]; at 3,125 μM) was 66% and the “IL-8 production in pretreated cells without being stimulated” value (IL-8 production [2]) was “no change”.
